**Q.** For `O=C(Nc1ccc(CN2CCCC2)cc1)C1=Cc2cc(-c3ccccc3)ccc2CC1`, which melting point is on record?
**A.** 186 to 187 °C

**Q.** With `CCc1ccc2oc(C(=O)Nc3ccc(-c4ccc(S(=O)(=O)NC(C(=O)OC)C(C)C)cc4)cc3)c(C)c2c1OC(C)C` (stereo not given) as the compound, how does the melting point read?
**A.** 182 to 184 °C

**Q.** For `CCOC(=O)c1cc(O)c2nc(C)n(C)c2c1`, which melting point is on record?
**A.** 272 to 273 °C

**Q.** For `CC(=O)NCc1ncccc1OCc1ccccc1`, which melting point is on record?
**A.** 94 to 96 °C

**Q.** With `Cc1sc(N2C(=O)c3ccccc3C2=O)c(C(=O)c2ccc(Cl)cc2)c1CN(C)Cc1ccccc1` as the compound, how does the melting point read?
**A.** 197 to 199 °C

**Q.** Which melting point does the source give for `CC1(C)CCC(=O)Nc2cc(Nc3ncc4cc5ccccc5n4n3)ccc21` here?
**A.** 230 to 240 °C

**Q.** Which melting point does the source give for `Oc1ccc2c(c1)CC(NCC(O)c1ccccc1)CC2` (stereo not given) here?
**A.** 157 to 159 °C

**Q.** Which melting point does the source give for `CCCN(CCC)[C@H]1Cc2c[nH]c3ccc(-c4cccnc4)c(c23)C1` here?
**A.** 185 to 186 °C

**Q.** Which melting point does the source give for `CCCCc1ccc(C(O)=S)nc1` here?
**A.** 99 °C

**Q.** With `CC(C)(C)OC(=O)N1CCC(NC(=O)c2ccc(-n3cccn3)cc2)CC1` as the compound, how does the melting point read?
**A.** 170 to 171 °C

**Q.** With `Cc1oc(-c2ccc(Cl)cc2)nc1CO` as the compound, how does the melting point read?
**A.** 130 to 131 °C

**Q.** For `CCc1c2n(c3ccccc13)C(=O)C(Cc1nc[nH]c1C)CC2` (stereo not given), which melting point is on record?
**A.** 222 to 224 °C

**Q.** For `Nc1nc(N)c2cc(CCc3ccccc3)ccc2n1`, which melting point is on record?
**A.** 178 to 180 °C

**Q.** With `Clc1ccc(-c2n[nH]c(-c3ccncc3)n2)cc1` as the compound, how does the melting point read?
**A.** 264 to 266 °C

**Q.** For `CCCNC(=O)N1CCc2cc(S(=O)(=O)N3CC(c4ccccc4)NC3=O)ccc21` (stereo not given), which melting point is on record?
**A.** 197 to 199 °C

**Q.** For `O=C(NO)c1ccc2c(c1)CN(C(=O)c1ccc3[nH]ccc3c1)CC2`, which melting point is on record?
**A.** 252 °C

**Q.** Which melting point does the source give for `O=S(=O)(Nc1cc(Cl)cc(Cl)c1)c1cc(Br)ccc1O` here?
**A.** 158 to 159 °C

**Q.** For `COc1cc2nc(N3CCc4c(ncnc4N4CCOCC4)C3)[nH]c(=O)c2cc1OC`, which melting point is on record?
**A.** 288 to 290 °C

**Q.** With `CCCn1c(=O)c2c(nc(C=Cc3cc(OC)c(OC)cc3S(=O)(=O)Nc3ccccc3)n2C)n(CCC)c1=O` as the compound, how does the melting point read?
**A.** 247 to 249 °C

**Q.** Which melting point does the source give for `O=C(O)CC1(CNC(=O)c2ccc(CO[N+](=O)[O-])cc2)CCCCC1` here?
**A.** 127 to 128 °C

**Q.** With `Cc1ccc(CNc2c3c(nc4ccccc24)CCCC3O)cc1` (stereo not given) as the compound, how does the melting point read?
**A.** 176 to 178 °C

**Q.** With `COC(=O)c1cc(-c2ccc(OC)cc2)nn(CC(=O)Nc2ccc(SC)cc2)c1=O` as the compound, how does the melting point read?
**A.** 130 to 132 °C

**Q.** With `CCCn1c(=O)c2c(NC)n[nH]c2n(Cc2ccc(Cl)cc2)c1=O` as the compound, how does the melting point read?
**A.** 305 to 307 °C

**Q.** Which melting point does the source give for `Cc1cccc(-c2[nH]c(C(C)C)nc2-c2cccc(-c3ccc(NC(=O)NN4CCOCC4)cc3)c2)n1` here?
**A.** 146 to 148 °C

**Q.** For `CCOC(=O)c1cnn(-c2ccc(OCC(C)(C)C(=O)OC)c(C#N)c2)c1`, which melting point is on record?
**A.** 95 to 96 °C

**Q.** Which melting point does the source give for `CCCCC(=O)Nc1c(C(=O)OC)cccc1[N+](=O)[O-]` here?
**A.** 61 to 62 °C

**Q.** Which melting point does the source give for `Cc1cc(F)ccc1NC(=O)OC(C)(C)C` here?
**A.** 93 to 95 °C

**Q.** For `C[C@@H]1c2onc(-c3ccc(Cl)cc3)c2CC[C@H]1C(=O)O` (relative stereo), which melting point is on record?
**A.** 183 to 186 °C

**Q.** With `N#Cc1cc2ccccc2cc1O` as the compound, how does the melting point read?
**A.** 188 to 189 °C

**Q.** Which melting point does the source give for `CC(C)Sc1c(N)cccc1C#N` here?
**A.** 82 °C

**Q.** Which melting point does the source give for `CC(=O)NC[C@H]1CN(c2ccc(N3CCNC(=O)CC3)c(F)c2)C(=O)O1` here?
**A.** 140 to 146 °C

**Q.** For `CC(=O)OCc1nccc2[nH]c(=O)ccc12`, which melting point is on record?
**A.** 162 to 165 °C

**Q.** With `CCCn1c(C)nn(-c2ccc(N)cc2)c1=O` as the compound, how does the melting point read?
**A.** 139 °C

**Q.** Which melting point does the source give for `CCCCc1nc(CCNC(=O)OC(C)(C)C)c[nH]1` here?
**A.** 118 to 120 °C

**Q.** With `Cn1c(C(N)=O)c(-c2ccc(F)cc2)c2cccnc2c1=O` as the compound, how does the melting point read?
**A.** 329 to 330 °C

**Q.** With `Cc1ccc2c(c1)C=Cc1cc(C)ccc1C2c1cn(-c2ccnc(N3CCC[C@H]3C(=O)O)n2)c(=O)[nH]c1=O` as the compound, how does the melting point read?
**A.** 200 to 205 °C

**Q.** For `CCCc1cc(Cl)c2oc(C(=O)c3ccc(OC)cc3)c(C)c2c1O`, which melting point is on record?
**A.** 103 to 105 °C

**Q.** Which melting point does the source give for `CCCCc1nc(Cl)c(CO)n1Cc1ccc(OCc2ccccc2)cc1` here?
**A.** 115 to 116 °C

**Q.** For `NC(=O)c1sc(-n2cnc3cnccc32)cc1OCc1ccccc1C(F)(F)F`, which melting point is on record?
**A.** 226 to 227 °C

**Q.** Which melting point does the source give for `CCCn1c(=O)c2c(Cl)cc(Cl)cc2n(Cc2ccccc2)c1=O` here?
**A.** 111 to 115 °C

Source: a melting point compilation (Tetko et al.; mined from patent text by program, amines drawn as free bases though some values may be those of a salt)
